{"source": "paper PMC10053807", "about": "“Natural Lipid Extracts as an Artificial Membrane for Drug Permeability Assay: In Vitro and In Silico Characterization” (Pharmaceutics, 2023)", "key": {"[1]": {"assay": "PAMPA permeability, heart polar lipid extract (HPLE) membrane", "settings": "for Mean logPe: Heart Polar lipid extract membrane, n=3; for Papp at 4 h, 100 μM: bovine, PAMPA, pH 7.4"}, "[2]": {"assay": "PAMPA permeability, liver total lipid extract (LTLE) membrane", "settings": "for Papp at 4 h, 100 μM: bovine, PAMPA, pH 7.4"}, "[3]": {"assay": "PAMPA permeability, brain total lipid extract (BTLE) membrane", "settings": "for Mean logPe: Brain total lipid extract membrane, n=3; for Papp at 4 h, 100 μM: pig, PAMPA, pH 7.4"}, "[4]": {"assay": "PAMPA permeability, brain polar lipid extract (BPLE) membrane", "settings": "for Papp at 4 h, 100 μM: pig, PAMPA"}, "[5]": {"assay": "PAMPA permeability, comparison across the six natural lipid extract membranes", "settings": "for dependence of permeability on the lipid extract (PCA biplot): compounds near the abscissa of the PCA biplot, Figure 12"}, "[6]": {"assay": "PAMPA permeability, liver polar lipid extract (LPLE) membrane", "settings": "for Papp at 4 h, 100 μM: bovine, PAMPA"}, "[7]": {"assay": "PAMPA permeability, heart total lipid extract (HTLE) membrane", "settings": "for Mean logPe / Papp at 4 h, 100 μM: Heart total lipid extract membrane, n=3; for Papp at 4 h, 100 μM: bovine, PAMPA, pH 7.4, Mean Pe, * = not detected at acceptor side, value calculated from limit of detection"}, "[8]": {"assay": "in vitro", "settings": "bovine, PAMPA, pH 7.4"}, "[9]": {"settings": "Brain Polar lipid extract membrane, n=3"}, "[10]": {"settings": "pH 7.4, Mean Pe, n=3, * = not detected at acceptor side, value calculated from limit of detection"}, "[11]": {"settings": "Liver total lipid extract membrane, n=3"}}}
{"compound": "COc1ccc2c(c1)N(C[C@H](C)CN(C)C)c1ccccc1S2", "note": "[levomepromazine]", "values": [{"measurement": "Mean logPe", "setting": "[1]", "value": -5.20}, {"measurement": "Papp at 4 h, 100 μM", "setting": "[1]", "value": 6.57, "unit": "×10⁻⁶ cm/s"}, {"measurement": "Mean Pe", "setting": "[2]; Liver total lipid extract membrane, n=3, * = not detected at acceptor side, value calculated from limit of detection", "value": "< 3,7* 10-6 cm/s"}, {"measurement": "Papp at 4 h, 100 μM", "setting": "[2]", "value": "< 3.72", "unit": "×10⁻⁶ cm/s"}, {"measurement": "Mean logPe", "setting": "[3]", "value": -4.89}, {"measurement": "Papp at 4 h, 100 μM", "setting": "[3]", "value": 15.8, "unit": "×10⁻⁶ cm/s"}, {"measurement": "Mean logPe", "setting": "[4]; [9]", "value": -4.83}, {"measurement": "Papp at 4 h, 100 μM", "setting": "[4]; pH 7.4", "value": 15.1, "unit": "×10⁻⁶ cm/s"}, {"measurement": "total-polar permeability comparison", "setting": "[5]; heart, liver and brain extracts, Figure 10A–C", "value": "heart total-liver polar"}, {"measurement": "Papp at 4 h, 100 μM", "setting": "[6]; [10]", "value": 28.5, "unit": "×10⁻⁶ cm/s"}, {"measurement": "Papp at 4 h, 100 μM", "setting": "[6]; pH 7.4, Mean logPe, n=3", "value": 23.4, "unit": "×10⁻⁶ cm/s"}, {"measurement": "Mean logPe", "setting": "[7]", "value": -4.90}, {"measurement": "Papp at 4 h, 100 μM", "setting": "[7]", "value": 13.2, "unit": "×10⁻⁶ cm/s"}]}
{"compound": "CC(=O)CC(c1ccccc1)c1c(O)c2ccccc2oc1=O", "note": "(centres unmarked) [warfarin]", "values": [{"measurement": "Mean logPe", "setting": "[1]", "value": -5.50}, {"measurement": "Papp at 4 h, 100 μM", "setting": "[1]", "value": 3.25, "unit": "×10⁻⁶ cm/s"}, {"measurement": "Mean logPe", "setting": "[2]; [11]", "value": -4.86}, {"measurement": "Papp at 4 h, 100 μM", "setting": "[2]", "value": 13.9, "unit": "×10⁻⁶ cm/s"}, {"measurement": "Mean logPe", "setting": "[3]", "value": -5.62}, {"measurement": "Papp at 4 h, 100 μM", "setting": "[3]", "value": 2.43, "unit": "×10⁻⁶ cm/s"}, {"measurement": "Papp at 4 h, 100 μM", "setting": "[4]; pH 7.4", "value": 0.47, "unit": "×10⁻⁶ cm/s"}, {"measurement": "Papp at 4 h, 100 μM", "setting": "[4]; pH 7.4, Mean logPe, Brain Polar lipid extract membrane, n=3", "value": 1.41, "unit": "×10⁻⁶ cm/s"}, {"measurement": "Papp at 4 h, 100 μM", "setting": "[8]", "value": 0.891, "unit": "×10⁻⁶ cm/s"}, {"measurement": "Papp at 4 h, 100 μM", "setting": "[6]; [10]", "value": 7.48, "unit": "×10⁻⁶ cm/s"}, {"measurement": "Mean logPe", "setting": "[6]; n=3", "value": -5.14}, {"measurement": "Papp at 4 h, 100 μM", "setting": "[7]", "value": 0.29, "unit": "×10⁻⁶ cm/s"}, {"measurement": "PAMPA permeability on HTLE", "setting": "[7]; pH 7.4, 4 h, 37 °C, in words (PCA biplot, Figure 11B)", "value": "low"}]}
{"compound": "Cc1c(OCC(F)(F)F)ccnc1C[S+]([O-])c1nc2ccccc2[nH]1", "note": "(centres unmarked) [lansoprazole]", "values": [{"measurement": "Mean logPe", "setting": "[1]", "value": -4.74}, {"measurement": "Papp at 4 h, 100 μM", "setting": "[1]", "value": 18, "unit": "×10⁻⁶ cm/s"}, {"measurement": "Mean logPe", "setting": "[2]; [11]", "value": -4.21}, {"measurement": "Papp at 4 h, 100 μM", "setting": "[2]", "value": 61.9, "unit": "×10⁻⁶ cm/s"}, {"measurement": "Mean logPe", "setting": "[3]", "value": -4.54}, {"measurement": "Papp at 4 h, 100 μM", "setting": "[3]", "value": 28.6, "unit": "×10⁻⁶ cm/s"}, {"measurement": "Mean logPe", "setting": "[4]; [9]", "value": -4.58}, {"measurement": "Papp at 4 h, 100 μM", "setting": "[4]; pH 7.4", "value": 26.6, "unit": "×10⁻⁶ cm/s"}, {"measurement": "dependence of permeability on the lipid extract (PCA biplot)", "setting": "[5]", "value": "independent of the investigated lipids"}, {"measurement": "Papp at 4 h, 100 μM", "setting": "[6]; [10]", "value": 24.4, "unit": "×10⁻⁶ cm/s"}, {"measurement": "Mean logPe", "setting": "[6]; n=3", "value": -4.62}, {"measurement": "Mean logPe", "setting": "[7]", "value": -4.67}, {"measurement": "Papp at 4 h, 100 μM", "setting": "[7]", "value": 21.9, "unit": "×10⁻⁶ cm/s"}]}
{"compound": "O=C1NC(=O)C(c2ccccc2)(c2ccccc2)N1", "note": "[phenytoin]", "values": [{"measurement": "Mean logPe", "setting": "[1]", "value": -4.42}, {"measurement": "Papp at 4 h, 100 μM", "setting": "[1]", "value": 38.4, "unit": "×10⁻⁶ cm/s"}, {"measurement": "Mean logPe", "setting": "[2]; [11]", "value": -4.35}, {"measurement": "Papp at 4 h, 100 μM", "setting": "[2]", "value": 44.7, "unit": "×10⁻⁶ cm/s"}, {"measurement": "Mean logPe", "setting": "[3]", "value": -4.46}, {"measurement": "Papp at 4 h, 100 μM", "setting": "[3]", "value": 35.3, "unit": "×10⁻⁶ cm/s"}, {"measurement": "Mean logPe", "setting": "[4]; [9]", "value": -4.57}, {"measurement": "Papp at 4 h, 100 μM", "setting": "[4]; pH 7.4", "value": 27.2, "unit": "×10⁻⁶ cm/s"}, {"measurement": "dependence of permeability on the lipid extract (PCA biplot)", "setting": "[5]", "value": "independent of the investigated lipids"}, {"measurement": "Papp at 4 h, 100 μM", "setting": "[6]; [10]", "value": 34.6, "unit": "×10⁻⁶ cm/s"}, {"measurement": "Mean logPe", "setting": "[6]; n=3", "value": -4.46}, {"measurement": "Mean logPe", "setting": "[7]", "value": -4.84}, {"measurement": "Papp at 4 h, 100 μM", "setting": "[7]", "value": 14.7, "unit": "×10⁻⁶ cm/s"}]}
{"compound": "CC(C)Cc1ccc(C(C)C(=O)O)cc1", "note": "(centres unmarked) [ibuprofen]", "values": [{"measurement": "Mean logPe", "setting": "[1]", "value": -4.62}, {"measurement": "Papp at 4 h, 100 μM", "setting": "[1]", "value": 24.2, "unit": "×10⁻⁶ cm/s"}, {"measurement": "Mean logPe", "setting": "[2]; [11]", "value": -4.54}, {"measurement": "Papp at 4 h, 100 μM", "setting": "[2]", "value": 29, "unit": "×10⁻⁶ cm/s"}, {"measurement": "Mean logPe", "setting": "[3]", "value": -5.05}, {"measurement": "Papp at 4 h, 100 μM", "setting": "[3]", "value": 8.97, "unit": "×10⁻⁶ cm/s"}, {"measurement": "Mean logPe", "setting": "[4]; [9]", "value": -5.12}, {"measurement": "Papp at 4 h, 100 μM", "setting": "[4]; pH 7.4", "value": 7.64, "unit": "×10⁻⁶ cm/s"}, {"measurement": "dependence of permeability on the lipid extract (PCA biplot)", "setting": "[5]", "value": "independent of the investigated lipids"}, {"measurement": "Papp at 4 h, 100 μM", "setting": "[6]; [10]", "value": 25.1, "unit": "×10⁻⁶ cm/s"}, {"measurement": "Mean logPe", "setting": "[6]; n=3", "value": -4.61}, {"measurement": "Mean logPe", "setting": "[7]", "value": -4.76}, {"measurement": "Papp at 4 h, 100 μM", "setting": "[7]", "value": 17.3, "unit": "×10⁻⁶ cm/s"}]}
